For 19 molecules, inhibition and IC50 results are on record in US10550143B2, “C,O-spiro aryl glycoside compounds, preparation therefor and use thereof” (SHANGHAI INSTITUTE OF MATERIA MEDICA, CHINESE ACADEMY OF …, priority 2015, dated 2020).

One may read the inhibition as the relative decrease from the control value, in per cent. A word on the IC50: it is the midpoint of a concentration-inhibition curve.

In this assay the target is T1, human sodium-glucose cotransporter 2 (SGLT2) (Homo sapiens, UniProt P31639).
T1 construct: expressed in transfected cells; host or cells: NIH3T3 (mouse fibroblast) cells expressing hSGLT2
T1 sequence (P31639 1-672): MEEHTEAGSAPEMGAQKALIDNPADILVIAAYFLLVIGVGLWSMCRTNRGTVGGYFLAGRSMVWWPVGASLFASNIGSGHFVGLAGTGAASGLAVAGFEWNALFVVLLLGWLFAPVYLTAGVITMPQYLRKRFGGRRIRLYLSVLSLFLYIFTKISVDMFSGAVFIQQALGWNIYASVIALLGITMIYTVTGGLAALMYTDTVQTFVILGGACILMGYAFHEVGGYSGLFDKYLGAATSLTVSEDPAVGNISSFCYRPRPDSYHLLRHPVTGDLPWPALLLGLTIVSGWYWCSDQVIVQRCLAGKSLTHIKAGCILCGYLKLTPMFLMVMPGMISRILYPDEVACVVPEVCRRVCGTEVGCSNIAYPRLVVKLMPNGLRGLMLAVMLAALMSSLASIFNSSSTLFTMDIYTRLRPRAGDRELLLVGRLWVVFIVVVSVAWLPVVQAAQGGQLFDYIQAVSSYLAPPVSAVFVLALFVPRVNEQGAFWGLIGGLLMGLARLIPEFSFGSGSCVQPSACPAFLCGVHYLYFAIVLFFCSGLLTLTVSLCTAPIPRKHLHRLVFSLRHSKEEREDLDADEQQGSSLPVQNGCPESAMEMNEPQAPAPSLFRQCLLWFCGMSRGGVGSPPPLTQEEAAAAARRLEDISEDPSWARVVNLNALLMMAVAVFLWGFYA
The experiment in a line: In vitro SGLT2 inhibition, methyl-α-D-[U-14C]glucopyranoside uptake in NIH3T3-hSGLT2 cells. The settings on record: for inhibition at 0.01 µM: SGLT2, 10 nM, read-out: % Inhibition rate ± SD 10 nM; for inhibition at 0.1 µM: SGLT2, 100 nM, read-out: % Inhibition rate ± SD 100 nM. It counts as cell-based. How it is done: Inhibition of the compounds of formula I against human sodium-glucose cotransporter 2 (SGLT2) was determined experimentally and the experimental procedures were carried out as reference^1.
Methyl-α-D-[U-^14C] glucopyranoside (Perkin Elmer) Dimethylsulfoxide (Genebase, Prod No: 0231)
(1) Primary screening of hSGLT2 are conducted with two concentrations, 100 nM and 10 nM;
SGLT2 transports D-glucose at 1:1 sodium-glucose ratio, glucose is replaced by the non-metabolic and isotope labeled methyl-aD-[U-^14C] glucopyranoside and methyl-aD-glucopyranoside, and the amount of isotope transferred into the cells was determined.
1) 0.2% gelatin in a 96-well plate was put in a 37° C. incubator for further use;
2) NIH3T3-hSGLT2 cells were injected into 96-well plates, 40000/well, and 100 μL culture medium per well:
3) the fluid was changed in the next day, and sodium butyrate was added into medium at a final concentration of 2 mM;
4) wash the cells with 100 μL of KRH—Na^+ for 3 times and incubate cells with 50 μL for 30 minutes. Cells were changed to 50 μL of compound in KRH—Na^+, uptake buffer (KRH—Na^+ and methyl-α-D-[U-^14C]glucopyranoside and ⅙ mM methyl-α-D-glucopyranoside at 10 μL per well) was added; KRH-acetylcholine solution was used as background control instead of KRH-Na^+
5) washed with 100 μL PBS for 3 times, dried, 50 μL lysate and 150 μL scintillation fluid were added, the membrane was covered and flattened, shaken on a shaker to mix thoroughly, centrifuged at 1500 rpm at 4° C. for 3 min, taken out and read;
6) the results were analyses.
The inhibition rate (% Inhibiton) of each sample at each concentration was calculated by dividing the value of the compound well value minus the background value by the value of the DMSO control well value minus the background value.
IC50 is calculated as follows: […]
The y value is the activity or inhibition percent, the x value is the concentration of the corresponding compound, top (the maximum y value of the curve), bottom (the minimum y value of the curve).

`Cc1ccc(Cc2ccc3c(c2)[C@]2(OC3)O[C@H](C)[C@@H](O)[C@H](O)[C@H]2O)cc1` [Example A1, (1S,3′R,4′S,5′S,6′R)-6′-methyl-6-(4-methylbenzyl)-3′,4′,5′,6′-tetrahydro-3H-spiro[isobenzofuran-1,2′-pyran]-3′,4′,5′-triol]: the inhibition at 0.01 µM came out at 21.2 ± 14.4% and the inhibition at 0.1 µM was determined as 26.9 ± 9.1%.

For `CCCc1ccc(Cc2ccc3c(c2)[C@]2(OC3)O[C@H](C)[C@@H](O)[C@H](O)[C@H]2O)cc1` [Example A3, (1S,3′R,4′S,5′S,6′R)-6′-methyl-6-(4-propylbenzyl)-3′,4′,5′,6′-tetrahydro-3H-spiro[isobenzofuran-1,2′-pyran]-3′,4′,5′-triol], the inhibition at 0.01 µM is 23.1 ± 18.5% and the inhibition at 0.1 µM stood at 31 ± 9.7%.

Regarding `CC(C)c1ccc(Cc2ccc3c(c2)[C@]2(OC3)O[C@H](C)[C@@H](O)[C@H](O)[C@H]2O)cc1` [Example A4, (1S,3′R,4′S,5′S,6′R)-6′-methyl-6-(4-isopropylbenzyl)-3′,4′,5′,6′-tetrahydro-3H-spiro[isobenzofuran-1,2′-pyran]-3′,4′,5′-triol], the inhibition at 0.01 µM was determined as 34.1 ± 23.6% and the inhibition at 0.1 µM was 42.2 ± 3.5%.

In the case of `COc1ccc(Cc2ccc3c(c2)[C@]2(OC3)O[C@H](C)[C@@H](O)[C@H](O)[C@H]2O)cc1` [Example A5, (1S,3′R,4′S,5′S,6′R)-6′-methyl-6-(4-methoxybenzyl)-3′,4′,5′,6′-tetrahydro-3H-spiro[isobenzofuran-1,2′-pyran]-3′,4′,5′-triol], the inhibition at 0.01 µM stood at 26 ± 14% and the inhibition at 0.1 µM was 28.9 ± 7.2%.

As for `CCOc1ccc(Cc2ccc3c(c2)[C@]2(OC3)O[C@H](C)[C@@H](O)[C@H](O)[C@H]2O)cc1` [Example A6, (1S,3′R,4′S,5′S,6′R)-6′-methyl-6-(4-ethyoxylbenzyl)-3′,4′,5′,6′-tetrahydro-3H-spiro[isobenzofuran-1,2′-pyran]-3′,4′,5′-triol], the inhibition at 0.01 µM came out at 27 ± 15.7% and the inhibition at 0.1 µM is 27.6 ± 3.1%.

For the molecule `Cc1ccc(Cc2ccc3c(c2)[C@]2(OC3)O[C@H](C)[C@@H](O)[C@H](O)[C@H]2O)s1` [Example A7, (1S,3′R,4′S,5′S,6′R)-6′-methyl-6-((5-methylthienyl)-2-methyl)-3′,4′,5′,6′-tetrahydro-3H-spiro [isobenzofuran-1,2′-pyran]-3′,4′,5′-triol], the inhibition at 0.01 µM turned out to be 15.7 ± 25.2% and the inhibition at 0.1 µM is 27.9 ± 1.9%.

On to `CCc1ccc(Cc2ccc3c(c2)[C@]2(OC3)O[C@H](C)[C@@H](O)[C@H](O)[C@H]2O)s1` [Example A8, (1S,3′R,4′S,5′S,6′R)-6′-methyl-6-((5-ethylthienyl)-2-methyl)-3′,4′,5′,6′-tetrahydro-3H-spiro [isobenzofuran-1,2′-pyran]-3′,4′,5′-triol], for which the inhibition at 0.01 µM was 30.4 ± 4.8% and the inhibition at 0.1 µM stood at 59.1 ± 5.3%. In addition, the 50% inhibitory concentration (IC50) (read-out: IC50 ± SD SGLT2) amounted to 285 ± 117 nM.

Turning to `CCCc1ccc(Cc2ccc3c(c2)[C@]2(OC3)O[C@H](C)[C@@H](O)[C@H](O)[C@H]2O)s1` [Example A9, (1S,3′R,4′S,5′S,6′R)-6′-methyl-6-((5-propylthienyl)-2-methyl)-3′,4′,5′,6′-tetrahydro-3H-spiro [isobenzofuran-1,2′-pyran]-3′,4′,5′-triol], the inhibition at 0.01 µM was determined as 34.7 ± 24% and the inhibition at 0.1 µM was determined as 52.8 ± 15.5%.

Regarding `C[C@H]1O[C@]2(OCc3ccc(Cc4ccc(Cl)s4)cc32)[C@H](O)[C@@H](O)[C@@H]1O` [Example A10, (1S,3′R,4′S,5′S,6′R)-6′-methyl-6-((5-chlorothienyl)-2-methyl)-3′,4′,5′,6′-tetrahydro-3H-spiro [isobenzofuran-1,2′-pyran]-3′,4′,5′-triol], the inhibition at 0.01 µM worked out at 28.1 ± 25.8% and the inhibition at 0.1 µM was 45.8 ± 10.2%.

Regarding `C[C@H]1O[C@]2(OCc3ccc(Cc4ccc(-c5ccc(F)cc5)s4)cc32)[C@H](O)[C@@H](O)[C@@H]1O` [Example A11, (1S,3′R,4′S,5′S,6′R)-6′-methyl-6-((5-(4-fluorophenyl)thienyl)-2-methyl)-3′,4′,5′,6′-tetrahydro-3H-spiro[isobenzofuran-1,2′-pyran]-3′,4′,5′-triol], the inhibition at 0.01 µM stood at 29.4 ± 11.1% and the inhibition at 0.1 µM was found to be 31.4 ± 8.1%.

Take `C[C@H]1O[C@]2(OCc3ccc(Cc4ccc(-c5ccccc5)s4)cc32)[C@H](O)[C@@H](O)[C@@H]1O` [Example A12, (1S,3′R,4′S,5′S,6′R)-6′-methyl-6-((5-phenylthienyl)-2-methyl)-3′,4′,5′,6′-tetrahydro-3H-spiro [isobenzofuran-1,2′-pyran]-3′,4′,5′-triol]: the inhibition at 0.01 µM was 20.4 ± 28.4% and the inhibition at 0.1 µM was found to be 49.1 ± 20%.

On to `C[C@H]1O[C@]2(OCc3ccc(Cc4ccc(-c5ccccn5)s4)cc32)[C@H](O)[C@@H](O)[C@@H]1O` [Example A13, (1S,3′R,4′S,5′S,6′R)-6′-methyl-6-((5-(2-pyridyl)thienyl)-2-methyl)-3′,4′,5′,6′-tetrahydro-3H-spiro[isobenzofuran-1,2′-pyran]-3′,4′,5′-triol], for which the inhibition at 0.01 µM stood at 31 ± 30.5% and the inhibition at 0.1 µM worked out at 46.9 ± 8.6%.

As for `C[C@H]1O[C@]2(OCc3ccc(Cc4ccc5ccccc5c4)cc32)[C@H](O)[C@@H](O)[C@@H]1O` [Example A14, (1S,3′R,4′S,5′S,6′R)-6′-methyl-6-(naphthyl-2-methyl)-3′,4′,5′,6′-tetrahydro-3H-spiro [isobenzofuran-1,2′-pyran]-3′,4′,5′-triol], the inhibition at 0.01 µM is 25.8 ± 15% and the inhibition at 0.1 µM was 55.8 ± 13.2%.

Regarding `C[C@H]1O[C@]2(OCc3ccc(Cc4cc5ccccc5s4)cc32)[C@H](O)[C@@H](O)[C@@H]1O` [Example A15, (1S,3′R,4′S,5′S,6′R)-6′-methyl-6-(benzo[b]thiophene-2-methyl)-3′,4′,5′,6′-tetrahydro-3H-spiro[isobenzofuran-1,2′-pyran]-3′,4′,5′-triol], the inhibition at 0.01 µM is 46.9 ± 4% and the inhibition at 0.1 µM turned out to be 50.8 ± 4.4%.

Take `C[C@H]1O[C@]2(OCc3ccc(Cc4cc5ccccc5o4)cc32)[C@H](O)[C@@H](O)[C@@H]1O` [Example A16, (1S,3′R,4′S,5′S,6′R)-6′-methyl-6-(benzo[b]furan-2-methyl)-3′,4′,5′,6′-tetrahydro-3H-spiro [isobenzofuran-1,2′-pyran]-3′,4′,5′-triol]: the inhibition at 0.01 µM was found to be 27.5 ± 19.6% and the inhibition at 0.1 µM amounted to 39 ± 16.1%.

As to `COc1ccc(Cc2cc3c(cc2Cl)CO[C@]32O[C@H](C)[C@@H](O)[C@H](O)[C@H]2O)cc1` [Example A25, (1S,3′R,4′S,5′S,6′R)-6′-methyl-6-(4-methoxybenzyl)-5-chloro-3′,4′,5′,6′-tetrahydro-3H-spiro[isobenzofuran-1,2′-pyran]-3′,4′,5′-triol], the inhibition at 0.01 µM worked out at 91.8 ± 5.1% and the inhibition at 0.1 µM turned out to be 101 ± 2.2%.

In the case of `C[C@H]1O[C@]2(OCc3cc(Cl)c(Cc4ccc(-c5ccccn5)s4)cc32)[C@H](O)[C@@H](O)[C@@H]1O` [Example A33], the inhibition at 0.01 µM worked out at 25 ± 9.3% and the inhibition at 0.1 µM came to 20.7 ± 7.5%.

Turning to `C[C@H]1O[C@]2(OCc3cc(F)c(Cc4ccc(-c5ccccn5)s4)cc32)[C@H](O)[C@@H](O)[C@@H]1O` [Example A46, (1S,3′R,4′S,5′S,6′R)-6′-methyl-6-((5-(2-pyridyl)thienyl)-2-methyl)-5-fluoro-3′,4′,5′,6′-tetrahydro-3H-spiro[isobenzofuran-1,2′-pyran]-3′,4′,5′-triol], the inhibition at 0.01 µM is 16 ± 14.8% and the inhibition at 0.1 µM came to 63.6 ± 2.4%.

For `C[C@H]1O[C@]2(OCc3cc(F)c(Cc4cc5ccccc5s4)cc32)[C@H](O)[C@@H](O)[C@@H]1O` [Example A47, (1S,3′R,4′S,5′S,6′R)-6′-methyl-6-(benzo[b]thiophene-2-methyl)-5-fluoro-3,4′,5′,6′-tetrahydro-3H-spiro [isobenzofuran-1,2′-pyran]-3′,4′,5′-triol], the inhibition at 0.01 µM turned out to be 19.4 ± 0.5% and the inhibition at 0.1 µM is 50.2 ± 10.8%.
